Experimental data from US12227510B2, “Crystal form of acid addition salt of furopyrimidine compound” (HANMI PHARM. CO., LTD., priority 2019, dated 2025).
Converted amounts (≈) assume the structure as drawn. Read-outs that look alike come from different tables or passages of the source.

How the values were obtained:
[1] = assay type: physicochemical; details: for pH of solution: solution of the water solubility test, 20 mg/mL in water
Method: (§1) HPLC analysis was performed for analyzing purity and contents such as a stability test, etc., using an Agilent 1100/1200 series HPLC Systems (Agilent, USA) analyzer, and the conditions used for HPLC were as follows. • Purity and Content Analysis Conditions: Furopyrimidine Compound of Formula 1 • Column: Hydrosphere C18 (YMC), 5 μm (150 mm×4.6 mm) • Column temperature: 30° C. • Detector: UV spectrophotometer • Detection wavelength: 254 nm • Flow rate: 1.0 mL/min • Time of analysis: 35 min • Eluent: NaClO4—NaH2PO4— phosphate buffer solution (pH 2.5±0.1)/CH3CN=65/35(v/v %) 5. Ion Chromatography (IC)
To measure water solubility, each sample of the acid addition salts of the compound of Formula 1 prepared in Examples 1 to 6 was prepared in deionized water under the following conditions, and then each solution was analyzed by HPLC according to content measurement conditions of the compound of Formula 1. The dissolved amounts (LOD: more than 0.001 mg/mL) based on the compound of Formula 1 were measured, and then the values were converted.
In detail, each 100 mg of various forms was added to 5 mL of water, and mixed using a Voltamixer at 20° C. to 25° C., and a filtrate filtered using GH Polypro membrane Acrodisc, PALL (pore size of 0.2 μm) was diluted with a dilution solvent for HPLC.

[2] = amorphous compound of Formula 1 as prepared in the reference documents; cited from earlier work
[3] = Dynamic vapor sorption (DVS) hygroscopicity; assay type: physicochemical
Method: DVS analysis was performed in a DVS advantage (Surface measurement system, United Kingdom) analyzer at 25° C. with a relative humidity of 0% to 90%. 10 mg of a sample was placed into a wire-mesh vapor sorption balance pan, and then attached to a DVS-advantage dynamic vapor sorption balance via surface measurement systems. Until a stable weight was achieved (99.5% completion of steps), the sample was applied to a ramping profile with a relative humidity (RH) of 10% to 90% with a 10% increase of the sample while maintaining the sample in each step. Upon completion of the sorption cycle, the sample was dried using the same process while maintaining a relative humidity of […]. The changes in the sample weight during the adsorption/desorption cycle (repeated 3 times) were recorded, and the hygroscopicity of the sample was measured.

[4] = Stability of the crystalline form under storage conditions; assay type: physicochemical; details: for stability under long-term storage conditions: temperature of 25° C. and relative humidity of 60%; for stability under accelerated conditions: temperature of 40° C. and relative humidity of 75%
Method: as §1

[5] = 25° C., region with a relative humidity of 10% to 90%

Row | Structure (SMILES) | Solubility [1] | water absorption in DVS [3, 5] | stability under long-term storage conditions [4] | stability under accelerated conditions [4] | also measured
1 | C=CC(=O)Nc1cccc(Oc2nc(Nc3ccc(N4CCN(C)CC4)cc3)nc3ccoc23)c1 [Formula 1 (Free base), N-(3-(2-(4-(4-methylpiperazin-1-yl)phenylamino)furo[3,2-d]pyrimidin-4-yloxy)phenyl)acrylamide] | 0.001 mg/mL | – | – | – | pH of solution [1]: 7.2~7.3; solubility in water [2]: less than 0.001 mg/mL
2 | C=CC(=O)Nc1cccc(Oc2nc(Nc3ccc(N4CCN(C)CC4)cc3)nc3ccoc23)c1 [Example 6, N-(3-(2-(4-(4-methylpiperazin-1-yl)phenylamino)furo[3,2-d]pyrimidin-4-yloxy)phenyl)acrylamide] | 9.59 mg/mL (≈ 20400 µM) | about 1% | sufficiently stable | sufficiently stable | solubility compared in words [1]: remarkably high solubility; pH of solution ([1]; listed as 1EsOH anhydrous): 6.3
3 | C=CC(=O)Nc1cccc(Oc2nc(Nc3ccc(N4CCN(C)CC4)cc3)nc3ccoc23)c1 [Example 5, N-(3-(2-(4-(4-methylpiperazin-1-yl)phenylamino)furo[3,2-d]pyrimidin-4-yloxy)phenyl)acrylamide] | 0.93 mg/mL (≈ 1980 µM) | about 1% | sufficiently stable | sufficiently stable | pH of solution ([1]; listed as 1MsOH•1H2O): 6.1
4 | C=CC(=O)Nc1cccc(Oc2nc(Nc3ccc(N4CCN(C)CC4)cc3)nc3ccoc23)c1 [Example 2, N-(3-(2-(4-(4-methylpiperazin-1-yl)phenylamino)furo[3,2-d]pyrimidin-4-yloxy)phenyl)acrylamide] | 0.3~0.7 mg/mL | about 0.8% | sufficiently stable | sufficiently stable | pH of solution ([1]; listed as 1HCl•2H2O): 5.8~5.9
5 | C=CC(=O)Nc1cccc(Oc2nc(Nc3ccc(N4CCN(C)CC4)cc3)nc3ccoc23)c1 [Example 3, N-(3-(2-(4-(4-methylpiperazin-1-yl)phenylamino)furo[3,2-d]pyrimidin-4-yloxy)phenyl)acrylamide] | 1.27 mg/mL (≈ 2700 µM) | about 1% | sufficiently stable | sufficiently stable | pH of solution ([1]; listed as 1HCl•anhydrous): 5.9~6.0
6 | C=CC(=O)Nc1cccc(Oc2nc(Nc3ccc(N4CCN(C)CC4)cc3)nc3ccoc23)c1 [Example 4, N-(3-(2-(4-(4-methylpiperazin-1-yl)phenylamino)furo[3,2-d]pyrimidin-4-yloxy)phenyl)acrylamide] | 1.13 mg/mL (≈ 2400 µM) | about 2% | sufficiently stable | sufficiently stable | pH of solution ([1]; listed as 1MsOH•anhydrous): 6.3
7 | C=CC(=O)Nc1cccc(Oc2nc(Nc3ccc(N4CCN(C)CC4)cc3)nc3ccoc23)c1 [Example 1, N-(3-(2-(4-(4-methylpiperazin-1-yl)phenylamino)furo[3,2-d]pyrimidin-4-yloxy)phenyl)acrylamide] | 0.9~1.4 mg/mL | – | sufficiently stable | sufficiently stable | solubility compared in words [1]: higher solubility than the crystalline form of the monohydrochloride; pH of solution ([1]; listed as 2HCl•3H2O): 2.3~2.4; water absorption in DVS ([3]; region with a relative humidity of 0% to 20%): showed water absorption; water absorption in DVS ([3]; region with a relative humidity of 30% or more): very low water absorption; stability under harsh conditions ([4]; printed: temperature of 40° C. and relative humidity of 75%): sufficiently stable
